According to US12290551B2, “Methods for imaging and treatment of somatostatin-receptor positive tumors” (Corcept Therapeutics Incorporated, priority 2018, dated 2025):

What was measured:
Assay type in all cases: in vivo, human
[1] = system: Cushing's syndrome patients; assay: Mean ACTH levels in relacorilant Groups 1 and 2
Description: Cortisol levels obtained for individual patients and the UFC tabular summary (Tables 1 and 2 above) show no significant changes from baseline in UFC.

[2] = system: Cushing's syndrome patients; assay: Drug-induced hypokalemia in Phase 2 study of relacorilant
[3] = system: ectopic tumor (somatostatin receptor expression); assay: Indium octreoscan imaging of ectopic tumor before and after relacorilant treatment; details: one patient; oral once daily 250, 300, 350, 400 mg/day, four weeks each; 111Indium octreotide
Method: In a further attempt to image, and to localize, the tumor in the patient, an indium octreoscan image (patient was administered Octreotide radiolabeled with ^111Indium prior to imaging) was obtained, in which a dot was seen which enabled localization of the tumor to the right lung/mediastinum region of the patient.
Relacorilant was then orally administered to the patient once per day for four months. The patient was administered 250 milligrams (mg) per day of relacorilant for four weeks, followed by 300 mg/day relacorilant for the next four weeks, followed by 350 mg/day relacorilant for a further four weeks, and then was administered 400 mg relacorilant for another four weeks.
The indium octreoscan image of FIG. 2 provides a much improved and enhanced image of the tumor in the patient as compared to the image of FIG. 1. It is believed that the improvement in the indium octreoscan image of FIG. 2 as compared to the image shown in FIG. 1 was due to increased somatostatin receptor expression, e.g., due to increased sst2 receptor expression, as compared to that expression prior to the relacorilant treatment.

[4] = system: Cushing's syndrome patients; assay: 24-hr Urinary Free Cortisol, Group 2, 16 week ascending-dose relacorilant study
Description: (§1) Cortisol levels can be measured in a biological sample, such as saliva, urine, whole blood, serum, plasma, or any other biological fluid taken from a patient suffering from Cushing's syndrome. Such samples are typically analyzed in vitro. In some cases, the same sample is used to measure cortisol level and ACTH level. In other cases, different samples are used to measure cortisol and ACTH levels. For example, cortisol levels can be measured in saliva or urine, and ACTH levels can be measured in plasma. In yet other cases, different samples of the same type are used to measure the levels. Methods for measuring cortisol levels are known to those in the art. Useful assays include immunoassays, e.g., competitive immunoassay, radioimmunoassay, immunofluorometric enzyme assay, and ELISA, competitive protein-binding assay and mass spectrometry, e.g., high-performance liquid chromatography/triple quadrupole-mass spectrometry (LC-MS/MS). Commercial kits for measuring cortisol in sample are available from, e.g., Beckman-Coulter, Seimens, Roche Diagnostics, and the like. Non-limiting examples of an immunoassay include an ADVIA Centaur® Cortisol assay (Siemens Healthcare Global), […] i2000SR cortisol (Abbott), Immulite® 2000 Cortisol assay (Siemans Healthcare Global; #L2KCO2), Vitros® ECi Cortisol assay (Ortho Clinical Diagnostics; #107 4053), and Elecsys® Cortisol Immunoassay (Roche Molecular Diagnostics; #11875116160).
Cortisol levels were measured in a second group of Cushing's syndrome patients who were administered doses of relacorilant. Urinary Free Cortisol (UFC) was measured in these patients over the course of a 16 week study in which ascending doses of relacorilant were administered.

[5] = system: Cushing's syndrome patients; assay: 24-hr Urinary Free Cortisol, Group 1, 12 week ascending-dose relacorilant study; details: for change in cortisol levels: Cushing's syndrome patients, Groups 1 and 2 (Tables 1 and 2); for Mean 24-hr UFC: Group 1, baseline 215.6
Description: as §1
Cortisol levels were measured in Cushing's syndrome patients who were administered doses of the heteroaryl-ketone fused azadecalin compound relacorilant. Urinary Free Cortisol (UFC) was measured in these patients over the course of a 12 week study in which ascending doses of relacorilant were administered.

With `Cn1cc(S(=O)(=O)N2CCC3=Cc4c(cnn4-c4ccc(F)cc4)C[C@]3(C(=O)c3cc(C(F)(F)F)ccn3)C2)cn1` [relacorilant, (R)-(1-(4-fluorophenyl)-6-((1-methyl-1H-pyrazol-4-yl)sulfonyl)-4,4a,5,6,7,8-hexahydro-1H-pyrazolo[3,4-g]isoquinolin-4a-yl)(4-(trifluoromethyl)pyridin-2-yl)methanone] the “mean ACTH” value ([1]; Group 1, Week 12, SD 10.34, Baseline 11.02±8.04) was 14.68 pmol/L, the “mean ACTH” value ([1]; Group 2, Week 16 or last-observed, SD 10.72, Baseline 12.79±8.36) was 15.56 pmol/L and the “change in ACTH” value ([1]; baseline to end of treatment) was “only modest increases in ACTH”. The drug-induced hypokalemia [2] was “lack of drug-induced hypokalemia”, the “effect on indium octreoscan images of the ectopic tumor” value [3] was “enhanced” and the “Mean 24-hr UFC” value ([4]; relacorilant 250 mg, Wk 2, baseline 228.1) was 252.1 µg/day. For the same compound, the “Mean 24-hr UFC” value ([4]; relacorilant 250 mg, Wk 4, baseline 228.1) was 218.2 µg/day, the “Mean 24-hr UFC” value ([4]; relacorilant 300 mg, Wk 6, baseline 228.1) was 257.4 µg/day and the “Mean 24-hr UFC” value ([4]; relacorilant 300 mg, Wk 8, baseline 228.1) was 149.1 µg/day. The “Mean 24-hr UFC” value ([4]; relacorilant 350 mg, Wk 10, baseline 228.1) was 185.4 µg/day, the “Mean 24-hr UFC” value ([4]; relacorilant 350 mg, Wk 12, baseline 228.1) was 249.0 µg/day and the “Mean 24-hr UFC” value ([4]; relacorilant 400 mg, Wk 14, baseline 228.1) was 194.1 µg/day. For the same compound, the “Mean 24-hr UFC” value ([4]; relacorilant 400 mg, Wk 16, baseline 228.1) was 203.1 µg/day, the “change in cortisol levels” value [5] was “does not lead to significant increases in cortisol levels” and the “change in cortisol levels” value ([5]; listed as Relacorilant) was “no increases in cortisol concentrations”. For the same compound, the “Mean 24-hr UFC” value ([5]; relacorilant 100 mg, Wk 2) was 151.8 µg/day, the “Mean 24-hr UFC” value ([5]; relacorilant 100 mg, Wk 4) was 157.0 µg/day and the “Mean 24-hr UFC” value ([5]; relacorilant 150 mg, Wk 6) was 145.3 µg/day. The “Mean 24-hr UFC” value ([5]; relacorilant 150 mg, Wk 8) was 134.9 µg/day, the “Mean 24-hr UFC” value ([5]; relacorilant 200 mg, Wk 10) was 180.9 µg/day and the “Mean 24-hr UFC” value ([5]; relacorilant 200 mg, Wk 12) was 211.6 µg/day.
